Our source for the GI50 and TGI values is PubChem BioAssay (NCI).

Test systems include NCI-H226 lung; OVCAR-5 ovarian; RXF 393 renal; HS 578T breast; KM12 colon; SF-295 CNS; K-562 leukemia; UO-31 renal; HCT-15 colon; MALME-3M melanoma.
What all share (assay): DTP human tumour cell line panel, 48 h

Structures are written as SMILES. Values joined by “and” are separate entries in the source; they are usually repeats but may differ in a detail not shown here. Identical values can stand only once.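 A five-concentration, 48-hour dose response in 96-well plates underlies each endpoint, interpolated linearly between surrounding concentrations. The concentration for 50% growth inhibition is given as GI50. Definition used: TGI = concentration required for complete inhibition of growth.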

What is called GI50 is the concentration at which growth is held to half of that of the control. As usually defined, the TGI is the concentration giving total growth inhibition. Consider `Cc1cc(C(=O)Nc2cc(Oc3ccc4nc(NC(=O)C5CC5)cn4n3)ccc2C)n(C)n1`, for which the GI50 was 0.86 µM in the assay with NCI-H226 lung; greater than 10 µM in the assay with OVCAR-5 ovarian; 7.46 µM with RXF 393 renal; 7.48 µM in the assay with HS 578T breast; greater than 10 µM in the assay on KM12 colon; greater than 10 µM with SF-295 CNS. Besides, the GI50 with K-562 leukemia is 0.555 µM; in the assay with UO-31 renal it was greater than 10 µM; in the assay with HCT-15 colon, 6.49 µM; in the assay on MALME-3M melanoma, greater than 10 µM. Further, the TGI in the assay on NCI-H226 lung, in the assay on OVCAR-5 ovarian, in the assay on RXF 393 renal, in the assay on HS 578T breast, in the assay on KM12 colon and in the assay with SF-295 CNS was greater than 10 µM each time. In addition, the concentration for total growth inhibition (TGI) in the assay on K-562 leukemia, with UO-31 renal, in the assay on HCT-15 colon and in the assay on MALME-3M melanoma was greater than 10 µM in each case.
For the molecule `O=C1OCC(c2ccc(O)cc2)=C1c1cc(O)c(O)c(O)c1`, the GI50 was greater than 100 µM with NCI-H226 lung; 55.6 µM in the assay with OVCAR-5 ovarian; greater than 100 µM in the assay with RXF 393 renal; greater than 100 µM in the assay with HS 578T breast; 89.3 µM in the assay on KM12 colon; 26.4 µM with SF-295 CNS. In addition, the GI50 in the assay on K-562 leukemia is 82.2 µM; in the assay on UO-31 renal, greater than 100 µM; with HCT-15 colon it was greater than 100 µM; with MALME-3M melanoma, greater than 100 µM. The total growth inhibition concentration (TGI) with NCI-H226 lung was greater than 100 µM; in the assay with OVCAR-5 ovarian, greater than 100 µM; with RXF 393 renal, greater than 100 µM; with HS 578T breast, greater than 100 µM; with KM12 colon it was greater than 100 µM; in the assay with SF-295 CNS, 50.4 µM. Also, the total growth inhibition concentration (TGI) in the assay on K-562 leukemia, in the assay on UO-31 renal, with HCT-15 colon and in the assay with MALME-3M melanoma was greater than 100 µM in each case.
As for `CC(=Nc1ccccc1)C1=C(O)C(Cc2cccc(F)c2)NC1=O` (stereo not drawn), the GI50 in the assay on NCI-H226 lung is 5.25 µM; in the assay on OVCAR-5 ovarian, 0.253 µM; in the assay with RXF 393 renal it was 0.0186 µM; in the assay with HS 578T breast it was 0.0501 µM; in the assay with KM12 colon, 0.0457 µM; in the assay on SF-295 CNS, 0.0312 µM. Further, the GI50 in the assay on K-562 leukemia is 0.0412 µM; in the assay with UO-31 renal, 0.0789 µM; in the assay with HCT-15 colon it was 0.0444 µM; with MALME-3M melanoma, 0.0419 µM. The TGI in the assay with NCI-H226 lung is greater than 100 µM; in the assay with OVCAR-5 ovarian, greater than 100 µM; in the assay on RXF 393 renal it was 0.0561 µM; in the assay with HS 578T breast it was greater than 100 µM; in the assay on KM12 colon, greater than 100 µM; in the assay with SF-295 CNS, 0.184 µM. The TGI in the assay on K-562 leukemia, in the assay on UO-31 renal, in the assay with HCT-15 colon and with MALME-3M melanoma was greater than 100 µM in each case.
For the molecule `COC12C=C/C(=C(/C(=O)OCCSc3ccnn3C)C(=O)CCCCCCCCC3(OC)C=C/C(=C(/C(=O)OCCSc4ccnn4C)C(=O)CCCCCCCC1)O3)O2`, the GI50 in the assay on NCI-H226 lung was 0.827 µM; in the assay with OVCAR-5 ovarian it was 1.73 µM; in the assay on RXF 393 renal, 0.665 µM; in the assay with HS 578T breast it was 1.23 µM; in the assay on KM12 colon, 0.813 µM; in the assay with SF-295 CNS it was 0.948 µM. Moreover, the GI50 in the assay on K-562 leukemia was 1.05 µM; in the assay on UO-31 renal it was 0.942 µM; with HCT-15 colon it was 1.08 µM; in the assay on MALME-3M melanoma it was 0.776 µM. For the same molecule, the total growth inhibition concentration (TGI) in the assay with NCI-H226 lung is 1.76 µM; in the assay on OVCAR-5 ovarian, greater than 32.5 µM; in the assay with RXF 393 renal it was 1.17 µM; with HS 578T breast it was greater than 32.5 µM; in the assay with KM12 colon, 2.1 µM; in the assay with SF-295 CNS, 2.93 µM. Besides, the TGI was determined as 18 µM in the assay with K-562 leukemia, 11.1 µM in the assay on UO-31 renal, 4.39 µM in the assay with HCT-15 colon and 2.32 µM in the assay with MALME-3M melanoma.
Consider `c1cc(CN2CCCNCCNCCCNCC2)ccc1CN1CCCNCCNCCCNCC1`, for which the GI50 in the assay on NCI-H226 lung, with OVCAR-5 ovarian, in the assay with RXF 393 renal, in the assay with HS 578T breast, in the assay on KM12 colon and in the assay on SF-295 CNS was greater than 100 µM in each case. For the same molecule, the GI50 in the assay with K-562 leukemia, with UO-31 renal, with HCT-15 colon and with MALME-3M melanoma was greater than 100 µM throughout. In addition, the concentration for total growth inhibition (TGI) in the assay on NCI-H226 lung, with OVCAR-5 ovarian, with RXF 393 renal, in the assay on HS 578T breast, with KM12 colon and in the assay with SF-295 CNS was greater than 100 µM each time. For the same molecule, the TGI in the assay with K-562 leukemia, in the assay on UO-31 renal, with HCT-15 colon and in the assay on MALME-3M melanoma was greater than 100 µM in each case.
Regarding `COC1CC(C)C(OC)c2cc(O)cc(c2O)NC(=O)/C(C)=C/C=C\C(C)C(OC(N)=O)/C(C)=C\C(C)C1OC` (stereo not drawn), the TGI with NCI-H226 lung was 24.3 µM and 24.4 µM; in the assay with OVCAR-5 ovarian it was 20.5 µM and 11 µM; with RXF 393 renal, 9.01 µM and 8.63 µM; in the assay on HS 578T breast, 20.8 µM and 6.92 µM; in the assay with KM12 colon, 1.9 µM and 2.83 µM; in the assay with SF-295 CNS, 9.09 µM and 8.02 µM. In addition, the TGI in the assay on UO-31 renal is 17.4 µM and 15.6 µM; with HCT-15 colon, 11.9 µM and 12.7 µM; in the assay on MALME-3M melanoma, 4.89 µM and 7.39 µM. The GI50 with OVCAR-5 ovarian was 0.549 µM; with RXF 393 renal it was 1.33 µM; with HS 578T breast, 0.511 µM and 0.758 µM; with KM12 colon it was 0.111 µM and 0.184 µM; with SF-295 CNS, 0.665 µM; in the assay with K-562 leukemia it was 0.0333 µM and 0.143 µM and 0.0785 µM. Further, the GI50 in the assay with UO-31 renal was 8.32 µM; in the assay with HCT-15 colon, 4.91 µM; in the assay with MALME-3M melanoma it was 0.749 µM and 0.503 µM.
On to `COc1cccc(Sc2ccc([N+](=O)[O-])c3no[n+]([O-])c23)c1`, for which the GI50 is 18.2 µM in the assay on NCI-H226 lung; 8.31 µM with OVCAR-5 ovarian; 8.99 µM with RXF 393 renal; 16.2 µM in the assay with HS 578T breast; 17.2 µM in the assay with KM12 colon; 24.5 µM in the assay with SF-295 CNS. Further, the GI50 in the assay with K-562 leukemia is 3.66 µM; in the assay on UO-31 renal it was 2.27 µM; in the assay on HCT-15 colon it was 7.82 µM; in the assay with MALME-3M melanoma, 4.67 µM. Moreover, the TGI with NCI-H226 lung was 53.5 µM; in the assay on OVCAR-5 ovarian, 20.2 µM; in the assay on RXF 393 renal, 23.8 µM; with HS 578T breast it was 61.7 µM; with KM12 colon, 33.5 µM; in the assay on SF-295 CNS, 62.8 µM. Also, the total growth inhibition concentration (TGI) with K-562 leukemia worked out at 13 µM; with UO-31 renal it was 7.74 µM; in the assay with HCT-15 colon it was 23.1 µM; with MALME-3M melanoma it was 15 µM.
